Data published in PubChem BioAssay (NCI).
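These data come from cells grown in 96-well plates and exposed to compound for 48 hours at five concentrations. GI50 = concentration required for 50% inhibition of growth. TGI is the concentration that stops growth completely.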

Key:
Test in all cases: NCI-60 cell line screen, 48 h
CCRF-CEM leukemia = tested on: CCRF-CEM leukemia
MDA-MB-231 breast = tested on: MDA-MB-231 breast
K-562 leukemia = tested on: K-562 leukemia
MCF7 breast = tested on: MCF7 breast
CAKI-1 renal = tested on: CAKI-1 renal
SF-268 CNS = tested on: SF-268 CNS
OVCAR-5 ovarian = tested on: OVCAR-5 ovarian
RPMI-8226 leukemia = tested on: RPMI-8226 leukemia
OVCAR-4 ovarian = tested on: OVCAR-4 ovarian
SK-MEL-5 melanoma = tested on: SK-MEL-5 melanoma
SK-MEL-28 melanoma = tested on: SK-MEL-28 melanoma
MOLT-4 leukemia = tested on: MOLT-4 leukemia
SR leukemia = tested on: SR leukemia
HCT-15 colon = tested on: HCT-15 colon
SK-MEL-2 melanoma = tested on: SK-MEL-2 melanoma
RXF 393 renal = tested on: RXF 393 renal
KM12 colon = tested on: KM12 colon
SN12C renal = tested on: SN12C renal
SW-620 colon = tested on: SW-620 colon
UACC-62 melanoma = tested on: UACC-62 melanoma
DU-145 prostate = tested on: DU-145 prostate
SNB-19 CNS = tested on: SNB-19 CNS
PC-3 prostate = tested on: PC-3 prostate
OVCAR-8 ovarian = tested on: OVCAR-8 ovarian
A549 NSCLC = tested on: A549 NSCLC
HL-60(TB) leukemia = tested on: HL-60(TB) leukemia
COLO 205 colon = tested on: COLO 205 colon
IGROV1 ovarian = tested on: IGROV1 ovarian
SK-OV-3 ovarian = tested on: SK-OV-3 ovarian
EKVX NSCLC = tested on: EKVX NSCLC
UACC-257 melanoma = tested on: UACC-257 melanoma
SF-295 CNS = tested on: SF-295 CNS
786-0 renal = tested on: 786-0 renal
ACHN renal = tested on: ACHN renal
M14 melanoma = tested on: M14 melanoma
HOP-92 NSCLC = tested on: HOP-92 NSCLC
SF-539 CNS = tested on: SF-539 CNS
NCI-H522 lung = tested on: NCI-H522 lung
HS 578T breast = tested on: HS 578T breast
MDA-MB-435 = tested on: MDA-MB-435
HOP-62 NSCLC = tested on: HOP-62 NSCLC
NCI-H460 lung = tested on: NCI-H460 lung
T-47D breast = tested on: T-47D breast
UO-31 renal = tested on: UO-31 renal
U251 CNS = tested on: U251 CNS
SNB-75 CNS = tested on: SNB-75 CNS
TK-10 renal = tested on: TK-10 renal
OVCAR-3 ovarian = tested on: OVCAR-3 ovarian
BT-549 breast = tested on: BT-549 breast
NCI-H226 lung = tested on: NCI-H226 lung

Structure (SMILES): OCCCN=NNc1ccc(-c2nc3ccccc3[nH]2)cc1
- GI50 (CCRF-CEM leukemia): 0.644 µM
- TGI (CCRF-CEM leukemia): > 100 µM
- GI50 (MDA-MB-231 breast): 3.31 µM
- TGI (MDA-MB-231 breast): 12.7 µM
- GI50 (K-562 leukemia): 16.6 µM
- TGI (K-562 leukemia): 84.9 µM
- GI50 (MCF7 breast): 0.0891 µM
- TGI (MCF7 breast): 2.4 µM
- GI50 (CAKI-1 renal): 15.4 µM
- TGI (CAKI-1 renal): 39.3 µM
- GI50 (SF-268 CNS): 6.16 µM
- TGI (SF-268 CNS): 32.1 µM
- GI50 (OVCAR-5 ovarian): > 100 µM
- TGI (OVCAR-5 ovarian): > 100 µM
- GI50 (RPMI-8226 leukemia): 34.2 µM
- TGI (RPMI-8226 leukemia): > 100 µM
- GI50 (OVCAR-4 ovarian): 3.78 µM
- TGI (OVCAR-4 ovarian): > 100 µM
- GI50 (SK-MEL-5 melanoma): 15.6 µM
- TGI (SK-MEL-5 melanoma): 88.6 µM
- GI50 (SK-MEL-28 melanoma): 2.47 µM
- TGI (SK-MEL-28 melanoma): 6.46 µM
- GI50 (MOLT-4 leukemia): 43.6 µM
- TGI (MOLT-4 leukemia): > 100 µM
- GI50 (SR leukemia): 29.9 µM
- TGI (SR leukemia): > 100 µM
- GI50 (HCT-15 colon): 4.43 µM
- TGI (HCT-15 colon): > 100 µM
- GI50 (SK-MEL-2 melanoma): 14.5 µM
- TGI (SK-MEL-2 melanoma): 48.1 µM
- GI50 (RXF 393 renal): 4.06 µM
- TGI (RXF 393 renal): 18 µM
- GI50 (KM12 colon): 5.12 µM
- TGI (KM12 colon): 24.9 µM
- GI50 (SN12C renal): 14.3 µM
- TGI (SN12C renal): 46.6 µM
- GI50 (SW-620 colon): 3.04 µM
- TGI (SW-620 colon): > 100 µM
- GI50 (UACC-62 melanoma): 17.6 µM
- TGI (UACC-62 melanoma): 50.8 µM
- GI50 (DU-145 prostate): 4.12 µM
- TGI (DU-145 prostate): > 100 µM
- GI50 (SNB-19 CNS): 22.9 µM
- TGI (SNB-19 CNS): 48.8 µM
- GI50 (PC-3 prostate): 24.1 µM
- TGI (PC-3 prostate): 77.5 µM
- GI50 (OVCAR-8 ovarian): 3.12 µM
- TGI (OVCAR-8 ovarian): > 100 µM
- GI50 (A549 NSCLC): 2.62 µM
- TGI (A549 NSCLC): > 100 µM
- GI50 (HL-60(TB) leukemia): 25.2 µM
- TGI (HL-60(TB) leukemia): 96.2 µM
- GI50 (COLO 205 colon): 12.3 µM
- TGI (COLO 205 colon): 52.9 µM
- GI50 (IGROV1 ovarian): 5.26 µM
- TGI (IGROV1 ovarian): 45.8 µM
- GI50 (SK-OV-3 ovarian): 24.2 µM
- TGI (SK-OV-3 ovarian): 73 µM
- GI50 (EKVX NSCLC): 15.5 µM
- TGI (EKVX NSCLC): 52.6 µM
- GI50 (UACC-257 melanoma): 10.4 µM
- TGI (UACC-257 melanoma): > 100 µM
- GI50 (SF-295 CNS): 2.87 µM
- TGI (SF-295 CNS): 7.58 µM
- GI50 (786-0 renal): 17 µM
- TGI (786-0 renal): 46.7 µM
- GI50 (ACHN renal): 24.4 µM
- TGI (ACHN renal): 64 µM
- GI50 (M14 melanoma): 39.9 µM
- TGI (M14 melanoma): 69.4 µM
- GI50 (HOP-92 NSCLC): 14.8 µM
- TGI (HOP-92 NSCLC): 66.5 µM
- GI50 (SF-539 CNS): 5.97 µM
- TGI (SF-539 CNS): 28.4 µM
- GI50 (NCI-H522 lung): 12.5 µM
- TGI (NCI-H522 lung): 60.6 µM
- GI50 (HS 578T breast): 4.54 µM
- TGI (HS 578T breast): 21.9 µM
- GI50 (MDA-MB-435): 3.44 µM
- TGI (MDA-MB-435): 16.1 µM
- GI50 (HOP-62 NSCLC): 50.5 µM
- TGI (HOP-62 NSCLC): 71.3 µM
- GI50 (NCI-H460 lung): 4.65 µM
- TGI (NCI-H460 lung): > 100 µM
- GI50 (T-47D breast): 2.15 µM
- TGI (T-47D breast): 6.65 µM
- GI50 (UO-31 renal): 23.9 µM
- TGI (UO-31 renal): 78.1 µM
- GI50 (U251 CNS): 2.07 µM
- TGI (U251 CNS): 4.76 µM
- GI50 (SNB-75 CNS): 6.07 µM
- TGI (SNB-75 CNS): 38.6 µM
- GI50 (TK-10 renal): 31.9 µM
- TGI (TK-10 renal): 82.5 µM
- GI50 (OVCAR-3 ovarian): 2.31 µM
- TGI (OVCAR-3 ovarian): 5.13 µM
- GI50 (BT-549 breast): 34.4 µM
- TGI (BT-549 breast): 96.8 µM
- GI50 (NCI-H226 lung): 26.2 µM
- TGI (NCI-H226 lung): 58.9 µM
